“Also recorded” adds a separate entry of the source.
Assays:
monocytes in the RA chip = assay: monocyte migration in the RA chip, live imaging microscopy; format: cell-based, human; details: RA chip primed with TNF-α versus not primed
Excerpt: Following the established inflammation in the RA chip, work pivoted to whether the RA inflammation can be maintained on-chip for a long period. The RA chip cultured for over 4 days and quantified inflammatory cytokines secretion with IL-6 and GM-CSF as indicator. […] It was previously shown that pre-treatment circulating type I IFN (T1IFN) activity predicts non-response to TNFi (Wampler-Muskardin et al., Front Immunol, 2020). Remarkably, no patient with a ratio >1.3 achieved remission or low disease activity. It is also possible to use single cell gene expression analysis to study blood monocytes in RA patients with high vs. low IFN-β-to-α activity ratio. […] Further on, the behaviors of monocytes in the RA chip are investigated by infusing monocytes into the central sinus of the chip, from which monocytes can distribute into the microvessel network and extravasate out of vessel. […] In addition, the effect of circulating T1IFNs on monocyte activation in the RA chip was studied.
The biomimetic Synovium-on-a-Chip (FIG. 4A) contains two areas to mimic the outer layer (lining layer) and an inner layer (sublining layer) of the synovium. […]
To confirm the role of TNF-α in regulating the RA inflammation, monitored first is monocyte dynamics in the RA device which is primed with or without TNF-α. […]

[1] = test system: RA chip (HUVECs, RA patient derived FLS, RA patient monocyte-derived macrophage); assay: cytokine secretion profile of the RA chip with versus without TNF-α priming; format: cell-based, human
Excerpt: To study blood and synovial cells from RA patients to understand the biological basis for response/non-response to TNFi, disclosed herein is a microfluidics-based 3D vascularized organ-on-a-chip model of RA. The disclosed microphysiological system integrates key features that replicate in vivo synovial architecture and monitors dynamic interactions between the critical cell types of RA, such as monocyte, monocyte-derived macrophage, and fibroblast-like synoviocytes (FLS), in real time with live-cell imaging. The RA chip is compartmentalized into three functional regions, which are partitioned by regularly spaced trapezoid micropillars that confine cell-embedded hydrogels, by balancing surface tension and capillary forces, to mimic the native in vivo tissue architecture of synovitis. The different tissue regions are a central sinus that is lined with human umbilical vein endothelial cells (HUVECs), a synovial sublining, which contains vessels extending from the central sinus, and a synovial lining region (outer ring) connected with four medium reservoirs for medium supply. HUVECs and RA patient derived FLS, and RA patient monocyte-derived macrophage are infused into different regions sequentially and cultured for 7 days to establish a microvessel network and a layered structure of synovium.
With this established synovium structure on-chip, first profiled is the cytokine environment of the engineered RA chip at two conditions (with TNF-α priming versus without) to validate the inflammation status of the RA chip.
Following the established inflammation in the RA chip, work pivoted to whether the RA inflammation can be maintained on-chip for a long period. The RA chip cultured for over 4 days and quantified inflammatory cytokines secretion with IL-6 and GM-CSF as indicator. […] It was previously shown that pre-treatment circulating type I IFN (T1IFN) activity predicts non-response to TNFi (Wampler-Muskardin et al., Front Immunol, 2020). Remarkably, no patient with a ratio >1.3 achieved remission or low disease activity. […]

Substance: TNF-α
- monocyte migration dynamics (migration velocity and distance) (monocytes in the RA chip): promoted monocyte migration dynamics; also recorded: Enhanced migration behaviors
- secretion of IL-6 and GM-CSF ([1]; RA chip cultured for over 4 days after transient TNF-α treatment): generally decreased
- secretion of cytokines (IL-6, GM-CSF, IL-8, MCP-1, MCP-3, MIP-3α) ([1]; RA chip with TNF-α priming versus without): increased secretion
- inflammatory environment of the RA chip ([1]; primed with TNF-α at an interval of 2-3 days): maintained over 7 days

Reference: US20260103665A1, “Synovium-on-a-Chip” (New York University, priority 2022, published 2026)
